Reference: paper PMC6199744, “Development of Chemical Proteomics for the Folateome and Analysis of the Kinetoplastid Folateome” (ACS Infectious Diseases, 2018)
Where two headings read alike, the source gives them in different places.

What was measured:
Format in all cases: binding
[1] = biological target: T1, HeLa cell extract proteins (Homo sapiens, UniProt P10155); details: protein TROVE2; HeLa
T1 construct: endogenous in cells; host or cells: HeLa cell extract

[2] = biological target: T2, HeLa cell extract proteins (Homo sapiens, UniProt P62495); details: protein ETF1; HeLa
T2 construct: endogenous in cells; host or cells: HeLa cell extract

[3] = biological target: T3, HeLa cell extract proteins (Homo sapiens, UniProt Q13510); details: HeLa; protein ASAH1
T3 construct: endogenous in cells; host or cells: HeLa cell extract
T3 sequence (Q13510 22-395): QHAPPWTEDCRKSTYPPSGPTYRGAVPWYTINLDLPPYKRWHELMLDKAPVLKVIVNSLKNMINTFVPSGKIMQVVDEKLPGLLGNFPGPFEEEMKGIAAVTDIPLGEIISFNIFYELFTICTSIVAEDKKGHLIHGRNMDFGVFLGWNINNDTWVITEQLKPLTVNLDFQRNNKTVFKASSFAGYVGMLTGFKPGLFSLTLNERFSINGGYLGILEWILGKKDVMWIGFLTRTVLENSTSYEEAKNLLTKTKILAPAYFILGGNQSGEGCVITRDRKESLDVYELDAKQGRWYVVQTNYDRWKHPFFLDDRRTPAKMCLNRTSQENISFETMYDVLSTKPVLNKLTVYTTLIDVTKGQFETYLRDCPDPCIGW

[4] = biological target: T4, HeLa cell extract proteins (Homo sapiens, UniProt Q9H7Z7); details: captured protein PTGES2; HeLa
T4 construct: endogenous in cells; host or cells: HeLa cell extract

[5] = biological target: T5, HeLa cell extract proteins (Homo sapiens, UniProt Q9Y5A9); details: captured protein YTHDF2; HeLa
T5 construct: endogenous in cells; host or cells: HeLa cell extract
T5 sequence (Q9Y5A9 1-579): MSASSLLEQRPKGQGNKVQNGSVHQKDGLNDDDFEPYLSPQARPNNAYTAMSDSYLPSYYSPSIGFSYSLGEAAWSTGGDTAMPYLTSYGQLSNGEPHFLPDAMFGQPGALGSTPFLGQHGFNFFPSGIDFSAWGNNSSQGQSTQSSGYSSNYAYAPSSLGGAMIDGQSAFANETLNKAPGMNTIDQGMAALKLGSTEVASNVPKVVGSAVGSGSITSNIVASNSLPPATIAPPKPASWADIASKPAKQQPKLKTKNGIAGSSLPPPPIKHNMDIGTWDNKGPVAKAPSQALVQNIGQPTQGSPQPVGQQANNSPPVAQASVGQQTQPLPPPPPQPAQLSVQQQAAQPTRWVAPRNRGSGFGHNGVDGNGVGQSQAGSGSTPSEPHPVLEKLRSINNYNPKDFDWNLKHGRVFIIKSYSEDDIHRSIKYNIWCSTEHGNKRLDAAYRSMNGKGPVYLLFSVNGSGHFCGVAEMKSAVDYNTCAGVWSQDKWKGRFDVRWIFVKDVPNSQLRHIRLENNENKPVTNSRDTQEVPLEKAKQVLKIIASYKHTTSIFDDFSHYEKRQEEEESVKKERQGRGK

[6] = biological target: T6, HeLa cell extract proteins (Homo sapiens, UniProt O60232)
T6 construct: endogenous in cells; host or cells: HeLa cell extract
T6 sequence (O60232 1-199): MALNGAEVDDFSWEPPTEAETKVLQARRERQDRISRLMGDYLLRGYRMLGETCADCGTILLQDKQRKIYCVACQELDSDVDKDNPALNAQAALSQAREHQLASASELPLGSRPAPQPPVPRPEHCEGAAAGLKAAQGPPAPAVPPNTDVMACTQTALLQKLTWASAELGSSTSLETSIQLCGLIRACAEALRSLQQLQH

[7] = biological target: T7, HeLa cell extract proteins (Homo sapiens, UniProt P42330)
T7 construct: endogenous in cells; host or cells: HeLa cell extract
T7 sequence (P42330 1-323): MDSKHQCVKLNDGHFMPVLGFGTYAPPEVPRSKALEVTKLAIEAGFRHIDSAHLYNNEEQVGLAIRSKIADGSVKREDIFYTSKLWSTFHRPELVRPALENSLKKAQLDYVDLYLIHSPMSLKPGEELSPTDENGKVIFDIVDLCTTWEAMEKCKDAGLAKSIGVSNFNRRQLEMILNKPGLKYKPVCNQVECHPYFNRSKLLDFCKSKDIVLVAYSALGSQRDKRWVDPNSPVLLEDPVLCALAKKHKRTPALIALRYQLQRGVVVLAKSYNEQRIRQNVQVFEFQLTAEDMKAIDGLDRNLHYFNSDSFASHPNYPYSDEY

[8] = biological target: T8, HeLa cell extract proteins (Homo sapiens, UniProt P60510)
T8 construct: endogenous in cells; host or cells: HeLa cell extract
T8 sequence (P60510 1-307): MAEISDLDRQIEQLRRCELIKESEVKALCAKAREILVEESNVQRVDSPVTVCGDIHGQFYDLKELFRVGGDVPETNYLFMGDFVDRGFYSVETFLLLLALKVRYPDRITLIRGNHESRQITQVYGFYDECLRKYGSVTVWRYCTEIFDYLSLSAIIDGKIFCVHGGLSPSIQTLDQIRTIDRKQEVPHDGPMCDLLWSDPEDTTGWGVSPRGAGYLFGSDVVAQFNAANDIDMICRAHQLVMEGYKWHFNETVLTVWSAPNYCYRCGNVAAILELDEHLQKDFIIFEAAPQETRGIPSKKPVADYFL

[9] = biological target: T9, HeLa cell extract proteins (Homo sapiens, UniProt P68871)
T9 construct: endogenous in cells; host or cells: HeLa cell extract

[10] = HeLa, protein HBB (BETA-GLOBIN GENE FROM A T[…])

T1 sequence (P10155 whole entry): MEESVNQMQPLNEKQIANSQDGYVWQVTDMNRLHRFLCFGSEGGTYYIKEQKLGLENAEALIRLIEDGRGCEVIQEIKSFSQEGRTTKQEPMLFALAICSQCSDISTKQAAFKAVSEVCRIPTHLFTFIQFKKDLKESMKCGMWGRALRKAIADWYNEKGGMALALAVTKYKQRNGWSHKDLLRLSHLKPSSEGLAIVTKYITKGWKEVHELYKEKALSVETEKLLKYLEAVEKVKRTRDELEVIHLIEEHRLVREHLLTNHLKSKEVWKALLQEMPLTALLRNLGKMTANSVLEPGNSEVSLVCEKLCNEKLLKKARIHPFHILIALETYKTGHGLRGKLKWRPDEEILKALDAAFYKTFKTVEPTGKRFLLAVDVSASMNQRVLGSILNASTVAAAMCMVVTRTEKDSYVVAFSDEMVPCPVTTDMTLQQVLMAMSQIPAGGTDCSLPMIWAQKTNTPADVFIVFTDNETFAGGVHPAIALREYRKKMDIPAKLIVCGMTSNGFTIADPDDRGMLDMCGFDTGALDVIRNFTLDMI
T9 sequence (P68871 whole entry): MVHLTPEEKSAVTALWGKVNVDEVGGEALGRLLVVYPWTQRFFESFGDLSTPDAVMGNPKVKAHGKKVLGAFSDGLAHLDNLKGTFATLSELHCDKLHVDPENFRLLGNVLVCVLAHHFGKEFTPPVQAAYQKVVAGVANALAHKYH
T4 sequence (Q9H7Z7 whole entry): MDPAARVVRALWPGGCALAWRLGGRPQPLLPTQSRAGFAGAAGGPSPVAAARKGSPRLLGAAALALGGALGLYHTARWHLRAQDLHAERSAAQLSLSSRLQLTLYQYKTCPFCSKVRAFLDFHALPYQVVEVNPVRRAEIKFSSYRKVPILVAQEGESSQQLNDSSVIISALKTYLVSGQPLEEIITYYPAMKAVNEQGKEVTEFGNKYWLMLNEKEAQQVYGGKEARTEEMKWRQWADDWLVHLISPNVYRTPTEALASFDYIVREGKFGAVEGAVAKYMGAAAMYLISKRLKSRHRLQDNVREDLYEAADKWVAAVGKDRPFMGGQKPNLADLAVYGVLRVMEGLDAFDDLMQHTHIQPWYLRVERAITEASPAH

| SMILES | fold changes relative to vehicle control [1] | fold changes relative to vehicle control [2] | fold changes relative to vehicle control [3] | fold changes relative to vehicle control [4] | fold changes relative to vehicle control [5] | fold changes relative to vehicle control ([6]; protein SSSCA1, HeLa) | fold changes relative to vehicle control ([7]; HeLa, protein AKR1C3) | fold changes relative to vehicle control ([8]; protein PPP4C, HeLa) | fold changes relative to vehicle control [9, 10] | also measured |
| --- | --- | --- | --- | --- | --- | --- | --- | --- | --- | --- |
| Nc1nc2cccc(-c3ccccc3)c2n1Cc1ccc(Cl)c(Cl)c1 [compound 3] | 1.27 | 1.24 | 0.89 | 0.84 | 1.01 | – | – | – | – | – |
| Nc1nc2[nH]cc(CCc3ccc(C(=O)N[C@@H](CCC(=O)O)C(=O)O)cc3)c2c(=O)[nH]1 [PTX, pemetrexed] | – | – | – | – | – | – | – | – | – | fold changes relative to vehicle control [6]: 0.94; fold changes relative to vehicle control [7]: 1.13; fold changes relative to vehicle control [8]: 0.95; fold changes relative to vehicle control [9]: 0.94 |
| Nc1nc2c(c(=O)[nH]1)N(C=O)C(CNc1ccc(C(=O)N[C@@H](CCC(=O)O)C(=O)O)cc1)CN2 (stereo partly shown) [LEU, leucovorin] | – | – | – | – | – | 0.95 | 0.98 | 0.82 | 1.13 | – |
| CCCCCCOc1cccc(Cc2cnc(N)nc2N)c1 [compound 2] | 1.49 | 1.92 | 0.71 | 1.18 | 1.16 | – | – | – | – | – |
| NCCOCCOCC(=O)Nc1nc2ncc(CNc3ccc(C(=O)NC(CCC(=O)O)C(=O)O)cc3)nc2c(=O)[nH]1 (stereo not shown) [compound 6] | – | – | – | – | – | 1.13 | 1.3 | 0.95 | 0.99 | – |
| CCCCCCOc1ccc(Cc2cnc(N)nc2N)cc1 [compound 1] | 1.05 | 1.08 | 0.97 | 0.87 | 0.79 | – | – | – | – | – |
| NCCCNc1ccc(C(=O)NC(CCC(=O)O)C(=O)O)cc1 (stereo not shown) [compound 7] | – | – | – | – | – | 1.07 | 0.99 | 1 | 0.87 | – |
